IC50 data for 14 molecules are collected here from US20160158307A1, “Potent and Efficient Cytotoxic Peptides and Antibody-Drug Conjugates thereof and Their Synthesis” (priority 2014, published 2016).

pIC50: −log10 of the molar value. Numbered stars: 1 amine (or outer) side, 2 acyl side, 3 side chain; on linkers, the order of the positions; unused ones are H or OH. Square brackets hold non-standard residues; d marks the D form. Peptide text beside a SMILES is read from it. * marks the point of attachment. Butanoyl(3R-OMe,4S-NMe,4-Cy) = CO[C@H](CC(=O)[*:2])[C@H](C1CCCCC1)N(C)[*:1]; Dolaproine = CO[C@@H]([C@@H]1CCCN1)[C@@H](C)C(=O)O; X2 = CO[C@H](CC(=O)[*:2])[C@H](C1CCCC1)N(C)[*:1]; Dil = CC[C@H](C)[C@H](NC)[C@@H](CC(=O)O)OC; X1 = C[C@@H](N*)[C@@H](O)c1ccccc1; NMeV = CN[C@H](C(=O)O)C(C)C; Aib = CC(C)(N)C(=O)O; OtBu = CC(C)(C)O*

Holding throughout (format): cell-based, Human
One assay has as its system Hela. Kind of assay: In vitro cell assay (Cell Titer Glo), Hela. The settings on record: 6 days exposure. On the procedure: (§1) In vitro cell assay is performed in a 96 well micro titer plate. Human tumor cell lines Hela, A549, MCF-7, HCC-1954 and SK-BR-3 are obtained from ATCC (American Type Culture Collection).
The cells were harvested respectively during the logarithmic growth period and counted with hemocytometer. The cell viability was over 98% by trypan blue exclusion. 90 μl of cell suspensions were added in to 96-well plates, the final cell density was reached to 3000 cells/well. Plates were incubated for 96 hours at 37° C., and 5% CO2.
(§2) To each well was added 10 μL, of DMSO diluted compound (10×). For the sentinel base T0 plate, to each well was added 100 μL Cell Titer Gloand the luminescence signals with Envision reading were recorded.
(§3) […] Plates are read with Envision after adding Cell Titer Glo to each well. IC50 values were calculated using GraphPad Prism 5.
On the technique in general: Cellular ATP, detected with luciferase, serves as a proxy for viable cell number.

In the next assay the test system is A549. In words: In vitro cell assay (Cell Titer Glo), A549. Here is the method: as §1
The cells were harvested respectively during the logarithmic growth period and counted with hemocytometer. The cell viability was over 98% by trypan blue exclusion. 90 μl of cell suspensions were added in to 96-well plates, the final cell density was reached to 3000 cells/well. […]
as §2, §3

For a further assay, the system named is HCC1954. In words: In vitro cell assay (Cell Titer Glo), HCC1954. The settings on record: 6 days exposure. On the procedure: as §1
The cells were harvested respectively during the logarithmic growth period and counted with hemocytometer. […] 90 μl of cell suspensions were added in to 96-well plates, the final cell density was reached to 3000 cells/well. […]
as §2, §3

In the next assay the test system is SK-BR-3. Kind of assay: In vitro cell assay (Cell Titer Glo), SK-BR-3. The settings on record: 6 days exposure. On the procedure:
as §1
(§4) The cells were harvested respectively during the logarithmic growth period and counted with hemocytometer. […] 90 μl of cell suspensions were added in to 96-well plates, the final cell density was reached to 3000 cells/well. Plates were incubated for 96 hours at 37° C., and 5% CO2.
as §2, §3

For another assay, the system named is MCF-7. In words: In vitro cell assay (Cell Titer Glo), MCF-7. Here is the method: as §1, §4, §2, §3
The mark [1] stands for this setting: Homo sapiens, HeLa, 144 h, Table 2.
[2] abbreviates: Homo sapiens, HCC1954, 144 h, Table 2.
Where [3] appears, read: Homo sapiens, SK-BR-3, 144 h, Table 2.
Where [4] appears, read: Homo sapiens, HeLa, 144 h, Table 01.
[5] abbreviates: Homo sapiens, HCC1954, 144 h, Table 01.
[6] abbreviates: Homo sapiens, SK-BR-3, 144 h, Table 01.
Where [7] appears, read: Table 3, payloads and related ADCs, Her2 positive.

Broadly, the pIC50 is the IC50 on a negative log10 scale, so that one unit is a factor of ten. The low end stands for a high IC50, the high end for a low IC50. Consider `N.N.[Cl][Pt][Cl]` [Cisplatin, reference compound], for which the pIC50 in the assay on Hela (Table 01) is 6.74; with Hela (Table 2), 6.74; in the assay on A549 (Table 01, 6 days exposure) it was 5.55; in the assay on A549 (Table 2, 6 days exposure), 5.55; with HCC1954 (Table 01), 5.49; with HCC1954 (Table 2), 5.49. Also, the pIC50 is 6.07 with SK-BR-3 (Table 01); 6.07 in the assay with SK-BR-3 (Table 2); 5.45 in the assay with MCF-7 (Table 01, 6 days exposure); 5.45 in the assay with MCF-7 (Table 2, 6 days exposure).

On to `CO[C@H]([C@@H](C)C(=O)N[C@H](C)[C@@H](O)c1ccccc1)[C@@H]1CCCN1C(=O)C[C@@H](OC)[C@H](C1CCCC1)N(C)C(=O)[C@@H](NC(=O)C(C)(C)N)C(C)C` [Compound 17, (S)-2-(2-amino-2-methylpropanamido)-N-((1S,2R)-1-cyclopentyl-4-((S)-2-((1R,2R)-3-((1S,2R)-1-hydroxy-1-phenylpropan-2-ylamino)-1-methoxy-2-methyl-3-oxopropyl)pyrrolidin-1-yl)-2-methoxy-4-oxobutyl)-N,3-dimethylbutanamide], for which the pIC50 is 8.81 with Hela (setting [1]); 8.20 with A549 (Homo sapiens, A549, Table 2); 9.21 with HCC1954 (setting [2]); 9.08 in the assay with SK-BR-3 (setting [3]); 8.32 in the assay with MCF-7 (Homo sapiens, MCF7, Table 2).

Take `CO[C@H]([C@@H](C)C(=O)N[C@H](C)[C@@H](O)c1ccccc1)[C@@H]1CCCN1C(=O)C[C@@H](OC)[C@H](C1CCCCC1)N(C)C(=O)[C@@H](NC(=O)C(C)(C)N)C(C)C` [Compound 18, (S)-2-(2-amino-2-methylpropanamido)-N-((1S,2R)-1-cyclohexyl-4-((S)-2-((1R,2R)-3-((1S,2R)-1-hydroxy-1-phenylpropan-2-ylamino)-1-methoxy-2-methyl-3-oxopropyl)pyrroli-din-1-yl)-2-methoxy-4-oxobutyl)-N,3-dimethylbutanamide]: the pIC50 was 9.32 with Hela (setting [1]); 8.94 in the assay with A549 (Homo sapiens, A549, Table 2); 9.33 in the assay with HCC1954 (setting [2]); 9.09 in the assay with SK-BR-3 (setting [3]); 8.50 in the assay on MCF-7 (Homo sapiens, MCF7, Table 2).

Take `CO[C@H]([C@@H](C)C(=O)N[C@@H](Cc1ccccc1)C(=O)OC(C)(C)C)[C@@H]1CCCN1C(=O)C[C@@H](OC)[C@H](C1CCCC1)N(C)C(=O)[C@@H](NC(=O)C(C)(C)N)C(C)C` [Compound 21, (S)-tert-butyl2-((2R,3R)-3-((S)-1-((3R,4S)-4-((S)-2-(2-amino-2-methylpropanamido)-N,3-dimethylbutanamido)-4-cyclopentyl-3-methoxybutanoyl)pyrrolidin-2-yl)-3-methoxy-2-methylpropanamido)-3-phenylpropanoate] (H-[Aib]V[X2][Dolaproine]F-OtBu): the pIC50 in the assay on Hela (setting [1]) is 9.25; with A549 (Homo sapiens, A549, Table 2), 8.95; in the assay on HCC1954 (setting [2]) it was 9.53; in the assay on SK-BR-3 (setting [3]), 9.65; in the assay with MCF-7 (Homo sapiens, MCF7, Table 2) it was 8.89.

Regarding `CO[C@H]([C@@H](C)C(=O)N[C@@H](Cc1ccccc1)C(=O)OC(C)(C)C)[C@@H]1CCCN1C(=O)C[C@@H](OC)[C@H](C1CCCCC1)N(C)C(=O)[C@@H](NC(=O)C(C)(C)N)C(C)C` [Compound 22, (S)-tert-butyl-2-((2R,3R)-3-((S)-1-((3R,4S)-4-((S)-2-(2-amino-2-methylpropanamido)-N, 3-dimethylbutanamido)-4-cyclohexyl-3-methoxybutanoyl)pyrrolidin-2-yl)-3-methoxy-2-methylpropanamido)-3-phenylpropanoate] (H-[Aib]V[Butanoyl(3R-OMe,4S-NMe,4-Cy)][Dolaproine]F-OtBu), the pIC50 is 9.25 in the assay with Hela (setting [1]); 8.97 in the assay with A549 (Homo sapiens, A549, Table 2); 9.95 in the assay with HCC1954 (setting [2]); 10.18 in the assay with SK-BR-3 (setting [3]); 9.28 in the assay with MCF-7 (Homo sapiens, MCF7, Table 2).

Turning to `CO[C@H]([C@@H](C)C(=O)N[C@@H](Cc1ccccc1)c1nccs1)[C@@H]1CCCN1C(=O)C[C@@H](OC)[C@H](C1CCCC1)N(C)C(=O)[C@@H](NC(=O)C(C)(C)N)C(C)C` [Compound 23], the pIC50 in the assay on Hela (setting [1]) was 9.32; in the assay on A549 (Homo sapiens, A549, Table 2), 8.55; in the assay with HCC1954 (setting [2]), 9.39; in the assay on SK-BR-3 (setting [3]), 9.16; in the assay on MCF-7 (Homo sapiens, MCF7, Table 2), 8.54.

Regarding `CO[C@H]([C@@H](C)C(=O)N[C@@H](Cc1ccccc1)c1nccs1)[C@@H]1CCCN1C(=O)C[C@@H](OC)[C@H](C1CCCCC1)N(C)C(=O)[C@@H](NC(=O)C(C)(C)N)C(C)C` [Compound 24, (S)-2-(2-amino-2-methylpropanamido)-N-((1S,2R)-1-cyclohexyl-2-methoxy-4-((S)-2-((1R,2R)-1-methoxy-2-methyl-3-oxo-3-((S)-2-phenyl-1-(thiazol-2-yl)ethylamino)propyl)pyrrolidin-1-yl)-4-oxobutyl)-N,3-dimethylbutanamide], the pIC50 in the assay on Hela (setting [1]) was 9.24; in the assay with A549 (Homo sapiens, A549, Table 2) it was 8.48; in the assay on HCC1954 (setting [2]) it was 9.51; in the assay with SK-BR-3 (setting [3]) it was 9.28; in the assay with MCF-7 (Homo sapiens, MCF7, Table 2), 8.70.

Turning to `CN[C@H](C(=O)N[C@H](C(=O)N(C)[C@@H](C1CCCC1)[C@@H](CC(=O)N1CCC[C@H]1[C@H](OC)[C@@H](C)C(=O)N[C@H](C)[C@@H](O)c1ccccc1)OC)C(C)C)C(C)C` [Compound 33], the pIC50 with Hela (setting [4]) was 9.37; in the assay with A549 (Homo sapiens, A549, Table 01) it was 8.69; with HCC1954 (setting [5]), 9.84; in the assay with SK-BR-3 (setting [6]), 9.42; in the assay on MCF-7 (Homo sapiens, MCF7, Table 01) it was 8.87.

For `CN[C@H](C(=O)N[C@H](C(=O)N(C)[C@@H](C1CCCCC1)[C@@H](CC(=O)N1CCC[C@H]1[C@H](OC)[C@@H](C)C(=O)N[C@H](C)[C@@H](O)c1ccccc1)OC)C(C)C)C(C)C` [Compound 34], the pIC50 in the assay with Hela (setting [4]) is 9.41; with A549 (Homo sapiens, A549, Table 01), 8.78; in the assay with HCC1954 (setting [5]) it was 9.72; in the assay on SK-BR-3 (setting [6]) it was 9.48; in the assay with MCF-7 (Homo sapiens, MCF7, Table 01) it was 8.84.

For the molecule `CN[C@H](C(=O)N[C@H](C(=O)N(C)[C@@H](C1CCCC1)[C@@H](CC(=O)N1CCC[C@H]1[C@H](OC)[C@@H](C)C(=O)N[C@@H](Cc1ccccc1)c1nccs1)OC)C(C)C)C(C)C` [Compound 35], the pIC50 in the assay on Hela (setting [4]) is 9.99; with A549 (Homo sapiens, A549, Table 01), 9.17; in the assay with HCC1954 (setting [5]) it was 9.92; in the assay on SK-BR-3 (setting [6]), 9.72; in the assay with MCF-7 (Homo sapiens, MCF7, Table 01), 9.04.

On to `CN[C@H](C(=O)N[C@H](C(=O)N(C)[C@@H](C1CCCCC1)[C@@H](CC(=O)N1CCC[C@H]1[C@H](OC)[C@@H](C)C(=O)N[C@@H](Cc1ccccc1)c1nccs1)OC)C(C)C)C(C)C` [Compound 36], for which the negative-log IC50 (pIC50) in the assay with Hela (setting [4]) was 9.84; with A549 (Homo sapiens, A549, Table 01), 9.25; in the assay with HCC1954 (setting [5]), 9.99; with SK-BR-3 (setting [6]), 9.71; in the assay with MCF-7 (Homo sapiens, MCF7, Table 01) it was 9.08.

As for `CN[C@H](C(=O)N[C@H](C(=O)N(C)[C@@H](C1CCCC1)[C@@H](CC(=O)N1CCC[C@H]1[C@H](OC)[C@@H](C)C(=O)N[C@@H](Cc1ccccc1)C(=O)OC(C)(C)C)OC)C(C)C)C(C)C` [Compound 37] (H-[NMeV]V[X2][Dolaproine]F-OtBu), the pIC50 with Hela (setting [4]) was 9.70; in the assay with A549 (Homo sapiens, A549, Table 01), 9.06; with HCC1954 (setting [5]), 10.02; with SK-BR-3 (setting [6]), 9.93; with MCF-7 (Homo sapiens, MCF7, Table 01) it was 9.34.

For the molecule `CN[C@H](C(=O)N[C@H](C(=O)N(C)[C@@H](C1CCCCC1)[C@@H](CC(=O)N1CCC[C@H]1[C@H](OC)[C@@H](C)C(=O)N[C@@H](Cc1ccccc1)C(=O)OC(C)(C)C)OC)C(C)C)C(C)C` [Compound 38] (H-[NMeV]V[Butanoyl(3R-OMe,4S-NMe,4-Cy)][Dolaproine]F-OtBu), the negative-log IC50 (pIC50) in the assay on Hela (setting [4]) is 10.11; in the assay on A549 (Homo sapiens, A549, Table 01), 9.56; with HCC1954 (setting [5]) it was 9.89; in the assay with SK-BR-3 (setting [6]) it was 10.01; with MCF-7 (Homo sapiens, MCF7, Table 01), 9.19.

`CC[C@H](C)[C@@H]([C@@H](CC(=O)N1CCC[C@H]1[C@H](OC)[C@@H](C)C(=O)N[C@H](C)[C@@H](O)c1ccccc1)OC)N(C)C(=O)[C@@H](NC(=O)[C@@H](NC)C(C)C)C(C)C` [MMAE, monomethylauristatin E, reference compound] (H-[NMeV]V[Dil][Dolaproine]-X1): the pIC50 in the assay on Hela (Table 01) was 10.00; in the assay on A549 (Table 01, 6 days exposure), 9.29; in the assay with HCC1954 (Table 01), 10.14; in the assay on HCC1954 (setting [7]), 10.14; in the assay with SK-BR-3 (Table 01) it was 9.99; in the assay with SK-BR-3 (setting [7]) it was 9.99. Also, the pIC50 in the assay with MCF-7 (Table 01, 6 days exposure) is 9.49; in the assay on MCF-7 (Table 3, payloads and related ADCs, 6 days exposure, does not over-express Her2) it was 9.49.
